This is an account of results in patent US11840686B2, “Modulation of prekallikrein (PKK) expression” (Ionis Pharmaceuticals, Inc., priority 2013, dated 2023).

As a reminder, the % inhibition is the share of the control response that was lost under treatment. Read a low % inhibition as a response near the control.

Strand notation (5' to 3'): a small letter for the sugar, then the base; units joined by * are phosphorothioate-linked, units joined directly phosphodiester-linked; [ ] holds rarer units or linkages, { } end groups; capitals alone tell only the bases. e = 2'-O-(2-methoxyethyl) (MOE); [5mC] = 5-methylcytosine; d = 2'-deoxy (DNA)

The data set has as its system human PKK mRNA. Kind of data set: Antisense inhibition of human PKK mRNA in HepaRG cells, 5,000 nM (Example 2). It counts as cell-based. An outline of the steps: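 Percent inhibition of PKK mRNA is reported relative to untreated cells, after adjustment for total RNA by RIBOGREEN. Gapmers of 16–20 nucleosides with 2′-MOE wings were delivered at 5,000 nM by electroporation into HepaRG cells and left for roughly 24 hours before RNA isolation.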

The mark [1] stands for this setting: HepaRG cells, 5,000 nM antisense oligonucleotide, 5-10-5 gapmers, Table 17.
[2] abbreviates: HepaRG cells, electroporation with 5,000 nM antisense oligonucleotide, approximately 24 hours, PKK mRNA by RT-PCR (RTS3454), relative to untreated control cells, Table 6 experiment.
Setting [3] is: human PKK mRNA in HepaRG cells, 5-10-5 gapmers, Table 14.
Setting [4] is: Table 13, human PKK mRNA in HepaRG cells, 5-10-5 gapmers.
Where [5] appears, read: HepaRG cells, electroporation, 5,000 nM antisense oligonucleotide, approx. 24 hours, primer probe set RTS3454, relative to untreated control cells, Table 12.
Setting [6] is: Table 8, HepaRG cells, electroporation with 5,000 nM antisense oligonucleotide, approx. 24 hours, PKK mRNA by RT-PCR (RTS3454), relative to untreated control cells.
Where [7] appears, read: HepaRG cells, electroporation, 5,000 nM antisense oligonucleotide, approx. 24 hours, primer probe set RTS3454, relative to untreated control cells, Table 11.
[8] abbreviates: human PKK mRNA, HepaRG cells, 5-10-5 motif oligonucleotides targeting SEQ ID NO: 1 and 10.

Turning to “547745 (eT*eT*eG*eG*eT*dG*dG*dT*dG*dG*dG*dA*dT*dT*dG*eG*eT*eG*eG*e[5mC]; antisense) [compound 547745]”, the “% inhibition” value under setting [1] amounted to 55%.

As for “546183 (antisense e[5mC]*eA*e[5mC]*eT*eT*dA*dT*dT*dT*dG*dA*dT*dG*dA*d[5mC]*e[5mC]*eA*e[5mC]*eA*eT) [compound 546183]”, the “% inhibition” value under setting [2] was determined as 69%. Take “547606 (antisense eA*eA*e[5mC]*eA*eA*dT*dA*dT*d[5mC]*dA*d[5mC]*dT*dG*dT*dA*e[5mC]*e[5mC]*eT*eA*eT) [compound 547606]”: the “% inhibition” value under setting [3] is 43%. “547055 (eG*e[5mC]*eT*e[5mC]*e[5mC]*dT*dG*dG*d[5mC]*dA*dG*d[5mC]*dA*dA*dT*eG*eA*e[5mC]*e[5mC]*e[5mC]; antisense) [compound 547055]”: the “% inhibition” value under setting [1] stood at 70%.

“547029 (eT*e[5mC]*eT*eT*e[5mC]*dT*dA*dG*dG*dG*d[5mC]*d[5mC]*dA*d[5mC]*dA*e[5mC]*e[5mC]*eT*e[5mC]*eT; antisense) [compound 547029]”: the “% inhibition” value under setting [1] is 50%. In the case of “547558 (e[5mC]*e[5mC]*e[5mC]*e[5mC]*e[5mC]*dA*dG*dT*dT*d[5mC]*d[5mC]*d[5mC]*dA*dT*dG*e[5mC]*eA*eA*eG*eG; antisense) [compound 547558]”, the “% inhibition” value under setting [4] is recorded as 52%.

On to “547359 (e[5mC]*eG*eG*eG*eA*d[5mC]*dT*dG*dT*dA*d[5mC]*dT*dT*dT*dA*eA*eT*eA*eG*eG; antisense) [compound 547359]”, for which the “% inhibition” value under setting [2] is recorded as 81%. Regarding “547782 (antisense e[5mC]*e[5mC]*eA*eA*eG*dT*dA*dT*d[5mC]*dT*d[5mC]*dA*dT*dG*dT*eG*e[5mC]*e[5mC]*eT*eG) [compound 547782]”, the “% inhibition” value under setting [1] is 67%. With “546152 (eG*eT*eA*e[5mC]*eA*dT*dG*dG*dA*dA*dG*d[5mC]*dT*dA*d[5mC]*eA*eT*e[5mC]*e[5mC]*e[5mC]; antisense) [compound 546152]”, the “% inhibition” value (HepaRG cells, electroporation with 5,000 nM antisense oligonucleotide, approximately 24 hours, PKK mRNA by RT-PCR (RTS3454), relative to untreated control cells, Table 5 experiment) was 73%. “546461 (eA*eT*eG*eT*eT*dT*dA*dT*dT*dG*dT*dA*dG*d[5mC]*d[5mC]*eA*eT*eA*e[5mC]*eA; antisense) [compound 546461]”: the “% inhibition” value under setting [5] was found to be 53%.

Consider “547593 (eT*eT*e[5mC]*e[5mC]*eT*dA*dT*dA*dA*d[5mC]*dT*dA*dT*dA*dA*e[5mC]*eA*eG*eT*eA; antisense) [compound 547593]”, for which the “% inhibition” value under setting [3] came to 29%. For the substance “547429 (eA*eA*eT*e[5mC]*eT*d[5mC]*dA*dA*dA*dG*dA*dG*dT*dA*dA*e[5mC]*e[5mC]*eA*eG*eA; antisense) [compound 547429]”, the “% inhibition” value under setting [6] is listed as 81%.

In the case of “547501 (antisense eA*eT*eT*eG*e[5mC]*d[5mC]*dT*dA*dG*dA*d[5mC]*dT*d[5mC]*dT*dG*eG*eA*e[5mC]*eT*eG) [compound 547501]”, the “% inhibition” value under setting [7] was determined as 55%. “546280 (e[5mC]*e[5mC]*eA*eG*eA*dG*d[5mC]*dT*d[5mC]*d[5mC]*d[5mC]*dT*dT*dG*dT*eG*eT*e[5mC]*e[5mC]*e[5mC]; antisense) [compound 546280]”: the “% inhibition” value under setting [6] is recorded as 86%. Turning to “546346 (antisense eA*eG*eG*eG*eA*d[5mC]*d[5mC]*dA*d[5mC]*d[5mC]*dT*dG*dA*dA*dT*e[5mC]*eT*e[5mC]*e[5mC]*e[5mC]) [compound 546346]”, the “% inhibition” value stood at 83% (Table 9 experiment, HepaRG cells, 20,000 cells per well, electroporation with 5,000 nM antisense oligonucleotide, approx. 24 hours, PKK mRNA by RT-PCR (RTS3454), relative to untreated control cells) and 70% (Table 10 experiment, HepaRG cells, 20,000 cells per well, electroporation with 5,000 nM antisense oligonucleotide, approx. 24 hours, PKK mRNA by RT-PCR (RTS3454), relative to untreated control cells).

On to “547674 (eA*e[5mC]*eA*eA*eT*dA*dT*d[5mC]*dA*d[5mC]*dT*dG*dT*dA*d[5mC]*e[5mC]*eT*eT*eT*eA; antisense) [compound 547674]”, for which the “% inhibition” value under setting [8] was found to be 53%. Consider “546418 (eA*eT*eG*eT*eG*dG*d[5mC]*dA*d[5mC]*dT*dG*d[5mC]*dA*dG*dG*e[5mC]*eA*eA*eT*eA; antisense) [compound 546418]”, for which the “% inhibition” value under setting [5] worked out at 72%.

As for “547550 (antisense e[5mC]*e[5mC]*e[5mC]*e[5mC]*eA*dT*dG*d[5mC]*dA*dT*dA*d[5mC]*dT*d[5mC]*dG*e[5mC]*e[5mC]*eT*eT*eT) [compound 547550]”, the “% inhibition” value under setting [5] amounted to 53%. In the case of “547665 (eT*eG*eT*eA*e[5mC]*d[5mC]*dT*dA*dT*dA*dA*d[5mC]*dT*dA*dT*eA*eA*e[5mC]*eA*eG; antisense) [compound 547665]”, the “% inhibition” value under setting [8] came to 10%. With “547434 (eA*eG*eA*eG*eT*dT*dT*dG*dT*dT*d[5mC]*d[5mC]*dT*d[5mC]*d[5mC]*eA*eA*e[5mC]*eA*eA; antisense) [compound 547434]”, the “% inhibition” value under setting [6] turned out to be 54%. “547595 (antisense eA*e[5mC]*eT*eA*eG*dT*dT*dT*d[5mC]*d[5mC]*dT*dA*dT*dA*dA*e[5mC]*eT*eA*eT*eA) [compound 547595]”: the “% inhibition” value under setting [3] was 21%. The same measure, in the same setting: as for “547621 (antisense eT*eA*e[5mC]*eT*eA*dG*dT*dT*dT*d[5mC]*d[5mC]*dT*dA*dT*dA*eA*e[5mC]*eA*eG*eT) [compound 547621]”, the figure is 12%.

On to “547510 (antisense eA*eT*eG*eA*eG*dG*dA*d[5mC]*d[5mC]*d[5mC]*d[5mC]*d[5mC]*d[5mC]*dA*dG*eG*e[5mC]*eT*e[5mC]*eA) [compound 547510]”, for which the “% inhibition” value under setting [7] came out at 40%. For “547600 (antisense eT*eT*eT*e[5mC]*e[5mC]*dT*dA*dT*dA*dA*d[5mC]*dT*dA*dT*dA*eA*e[5mC]*eA*eA*eT) [compound 547600]”, the “% inhibition” value under setting [3] stood at 26%.

Regarding “546294 (antisense eG*eT*e[5mC]*e[5mC]*eT*dA*dT*dG*dA*dG*dT*dG*dA*d[5mC]*d[5mC]*e[5mC]*eT*e[5mC]*e[5mC]*eA) [compound 546294]”, the “% inhibition” value under setting [6] was determined as 72%. With “547766 (antisense eG*e[5mC]*e[5mC]*eT*e[5mC]*dT*d[5mC]*dA*dG*dA*d[5mC]*dG*dG*d[5mC]*dA*e[5mC]*eA*eG*eA*e[5mC]) [compound 547766]”, under setting [1], the “% inhibition” value is 0%.

Consider “547082 (eT*e[5mC]*eT*e[5mC]*e[5mC]*d[5mC]*dT*dG*dA*dG*dT*d[5mC]*dA*d[5mC]*dA*eG*eT*eG*eG*eA; antisense) [compound 547082]”, for which the “% inhibition” value under setting [1] amounted to 64%. With “547344 (antisense eG*eA*e[5mC]*eA*e[5mC]*dA*dT*dT*dA*dA*dA*dA*dT*dT*dG*eA*e[5mC]*eT*e[5mC]*e[5mC]) [compound 547344]”, the “% inhibition” value under setting [2] was 80%. Regarding “547644 (eT*eA*eT*e[5mC]*eA*d[5mC]*dT*dG*dT*d[5mC]*d[5mC]*dT*dA*dT*dA*eA*e[5mC]*eT*eA*eT; antisense) [compound 547644]”, the “% inhibition” value under setting [8] is on record as 51%.

With “548723 (DNA e[5mC]*eA*e[5mC]*dT*dG*dT*dA*d[5mC]*dT*dA*dG*dT*dT*eT*e[5mC]*e[5mC]*eT; antisense) [compound 548723]”, the “% inhibition” value (HepaRG cells, 5,000 nM antisense oligonucleotide, human PKK mRNA, Table 18) came out at 62%.

“546780 (eA*eT*eA*e[5mC]*eT*dG*dG*d[5mC]*dT*dA*dA*dG*dT*d[5mC]*dA*eG*eG*e[5mC]*e[5mC]*e[5mC]; antisense) [compound 546780]”: the “% inhibition” value under setting [4] came out at 83%. Take “547403 (eA*eT*eT*eT*eT*dA*dG*dA*dA*dT*dG*dG*d[5mC]*dA*dG*eG*eG*eT*eT*e[5mC]; antisense) [compound 547403]”: under “Table 7, HepaRG cells, electroporation with 5,000 nM antisense oligonucleotide, approx. 24 hours, PKK mRNA by RT-PCR (RTS3454), relative to untreated control cells”, the “% inhibition” value came out at 10%. With “547675 (antisense eT*eG*eT*e[5mC]*e[5mC]*dT*dA*dT*dA*dA*d[5mC]*dT*dA*dT*dA*eA*e[5mC]*eA*eA*eT) [compound 547675]”, the “% inhibition” value under setting [8] is on record as 10%. For the substance “547517 (antisense eT*eA*eG*eG*eA*dT*dG*d[5mC]*dA*dA*dA*dG*dA*dA*dG*eA*eT*eG*e[5mC]*e[5mC]) [compound 547517]”, the “% inhibition” value under setting [7] is listed as 57%. With “547754 (eG*eG*eG*eA*eT*dT*dG*dG*dT*dG*dG*dT*dT*dG*dG*eT*eG*eG*e[5mC]*eG; antisense) [compound 547754]”, the “% inhibition” value under setting [1] is listed as 47%.

Turning to “546383 (antisense eG*eG*eA*eT*eG*d[5mC]*dA*dA*dA*dG*dA*dA*dG*dA*dT*eG*e[5mC]*e[5mC]*eA*e[5mC]) [compound 546383]”, the “% inhibition” value under setting [7] stood at 57%. Consider “546501 (eT*eT*eT*e[5mC]*e[5mC]*dA*dT*dG*d[5mC]*dA*dT*dA*d[5mC]*dT*d[5mC]*eG*e[5mC]*e[5mC]*eT*eT; antisense) [compound 546501]”, for which the “% inhibition” value under setting [5] worked out at 53%. With “546177 (antisense eT*eG*eT*e[5mC]*e[5mC]*dA*dG*dA*dA*dA*d[5mC]*dT*dG*d[5mC]*dA*e[5mC]*e[5mC]*eT*eG*eT) [compound 546177]”, the “% inhibition” value under setting [2] is 75%. On the same count and under the same terms, as for “546203 (antisense eA*eA*eT*eT*eG*dT*dT*d[5mC]*d[5mC]*dG*dG*dT*dA*d[5mC]*dT*e[5mC]*eT*eG*e[5mC]*e[5mC]) [compound 546203]”, the figure is 76%.
